Tests used:
Format in all cases: biochemical
Ube1 [1] = molecular target: T1, Ube1 (Homo sapiens, UniProt P22314); test: Gel-based Ube1~Ub thioester assay and on-bead UPS-CONA with Ube1 alone
T1 construct: gene UBA1
T1 sequence (P22314 2-1058): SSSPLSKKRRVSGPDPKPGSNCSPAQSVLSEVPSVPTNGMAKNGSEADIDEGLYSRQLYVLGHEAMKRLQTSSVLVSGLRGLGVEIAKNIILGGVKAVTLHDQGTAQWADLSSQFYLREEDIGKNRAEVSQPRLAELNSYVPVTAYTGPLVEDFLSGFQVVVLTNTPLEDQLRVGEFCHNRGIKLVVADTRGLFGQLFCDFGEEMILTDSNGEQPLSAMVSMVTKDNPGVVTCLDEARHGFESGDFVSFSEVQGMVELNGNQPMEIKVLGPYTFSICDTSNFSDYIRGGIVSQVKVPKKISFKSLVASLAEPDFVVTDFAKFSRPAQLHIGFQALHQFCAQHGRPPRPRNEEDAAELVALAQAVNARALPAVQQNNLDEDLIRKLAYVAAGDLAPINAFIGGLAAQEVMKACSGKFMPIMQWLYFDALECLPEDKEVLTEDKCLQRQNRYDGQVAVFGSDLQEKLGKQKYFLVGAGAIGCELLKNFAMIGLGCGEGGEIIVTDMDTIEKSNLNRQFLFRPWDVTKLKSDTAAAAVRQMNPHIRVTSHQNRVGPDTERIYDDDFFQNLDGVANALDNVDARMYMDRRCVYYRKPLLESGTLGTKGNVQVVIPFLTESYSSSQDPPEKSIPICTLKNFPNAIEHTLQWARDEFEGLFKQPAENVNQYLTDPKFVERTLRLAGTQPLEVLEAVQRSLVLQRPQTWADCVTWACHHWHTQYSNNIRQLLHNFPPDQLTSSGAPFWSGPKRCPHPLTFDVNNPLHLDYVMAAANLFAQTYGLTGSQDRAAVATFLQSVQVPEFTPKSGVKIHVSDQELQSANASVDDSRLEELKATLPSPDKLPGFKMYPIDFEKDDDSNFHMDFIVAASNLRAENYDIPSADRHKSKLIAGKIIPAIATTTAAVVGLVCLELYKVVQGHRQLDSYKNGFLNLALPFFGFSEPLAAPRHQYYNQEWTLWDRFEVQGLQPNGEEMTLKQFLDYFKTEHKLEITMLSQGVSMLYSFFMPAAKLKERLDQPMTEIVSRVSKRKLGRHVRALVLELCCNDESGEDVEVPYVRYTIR

Ube2L3 = molecular target: T2, Ube2L3 (Homo sapiens, UniProt P68036); test: On-bead UPS-CONA, concentration-dependent inhibition on eGFP-Ube2L3
T2 construct: eGFP-Ube2L3

Ube1 [2] = molecular target: T1, Ube1; test: Gel-based Ube1~Ub thioester assay with purified Ube1; also on-bead UPS-CONA with Ube1 alone (IC50 below […])

T2 sequence (P68036 whole entry, one chain of several): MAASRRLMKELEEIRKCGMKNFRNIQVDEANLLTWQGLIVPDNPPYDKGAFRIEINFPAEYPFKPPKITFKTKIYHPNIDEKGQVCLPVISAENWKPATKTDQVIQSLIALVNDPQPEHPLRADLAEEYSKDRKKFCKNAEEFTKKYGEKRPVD

Row | SMILES | IC50 (Ube1 [1]) | IC50 (Ube2L3) | IC50 (Ube1 [2])
1 | CCc1ccc(/C=C/C(=O)Nc2ccc(C(C)=O)cc2)o1 [heclin] | 16 µM |  | 
2 | Cc1ccc(S(=O)(=O)/C=C/C#N)cc1 [BAY 11-7082] |  | 7.5 µM | ~4.6 µM
